Measurements reported in patent US20150133467A1, “SCREENING METHOD, PROTEIN INSTABILITY AND/OR STABILITY INDUCERS, AND PROTEIN ACTIVITY ASSESSMENT” (KYOTO UNIVERSITY, priority 2012, published 2015).

What was measured:
FLAGx3-DYRK1A protein = target: T1, FLAGx3-DYRK1A protein (Homo sapiens, UniProt Q13627); test: Screening with FLAGx3-DYRK1A-2A-HAx3-EGFP assay cells, Western blotting; assay type: cell-based; conditions: Western blot; for amount of intracellular DYRK1A protein: concentration of 4 μm, FIG. 8; for amount of FLAGx3-DYRK1A (FLAG-DYRK1A) protein within the cells: FIGS. 9-12, constant concentration not stated
T1 construct: 2A peptide (what is left of it after self-cleavage) (C); expressed in transfected cells
Protocol: Cultured cells with expressed FLAGx3-DYRK1A-2A-HAx3-EGFP (assay cells) were cultured on a plate, and test compounds of a constant concentration were added to the culture solution for a further cultivation. After the cultivation, the amounts of FLAGx3-DYRK1A, HAx3-EGFP, and GAPDH were quantitatively analyzed by a Western blotting method, and the ratio was analyzed.
After the cultivation, the amounts of FLAGx3-DYRK1A, HAx3-EGFP, and GAPDH were quantitatively analyzed by a Western blotting method, and the ratio was analyzed.
After the cultivation, the respective amounts of FLAGx3-DYRK1A, HAx3-EGFP, and GAPDH were quantitatively analyzed by a Western blotting method, and the ratio was analyzed.

DYRK1A = target: T2, DYRK1A (Rattus norvegicus, UniProt Q63470); test: Monitoring of DYRK1A activity inhibition using homocysteine in blood as index; assay type: in vivo; conditions: rats, oral, 18 mg/kg, FIG. 7
T2 construct: from tissue; host or cells: living rat (whole animal); blood plasma analysed for homocysteine
Protocol: DYRK1A inhibitor Harmine was orally administered to rats, and the post-administration homocysteine concentration in blood was measured. The specific conditions are as follows, and the results are illustrated in FIG. 7.
After dissolving the DYRK1A inhibitor Harmine in an administration solvent of 0.9% NaCl, about 1 ml per individual was orally administered (final administration concentration: 18 mg/kg). At certain interval after the administration, the blood was collected from caudate veins. From the blood, blood plasma was separated and preserved in the presence of EDTA-2Na. Analysis of the homocysteine concentration in the blood plasma was consigned to SRL. Specifically, the measurement was conducted by extracting fractures including homocysteine from the blood plasma and then analyzing the amount of homocysteine included in the extract by HPLC (see Araki A et al: Journal of Chromatography 422, 43-52 1987, Araki A: Gendai-Iryou 22, 10, 2544-2549 1990).

EGFP-TAU protein = test: Screening with mCherry-2A-EGFP-TAU assay cells, Western blot analysis; assay type: cell-based, human
Excerpt: An assay cell having the simultaneous expression system of EGFP-fused TAU and mCherry (mCherry-2A-EGFP-TAU) as shown in the model diagram of FIG. 5 was produced. Specifically, the process was as follows. EGFP was fused with TAU (EGFP-TAU), and further, it was connected in-frame by using 2A peptide and mCherry gene that codes a red fluorescent protein (mCherry-2A-EGFP-TAU). The 2A peptide is an amino acid sequence enabling a bicistronic gene expression. Thereby, mCherry-2A-EGFP-TAU is translated simultaneously from the top of a single mRNA. A vector expressing the gene (mCherry-2A-EGFP-TAU) was produced in the following manner.

| amount of intracellular DYRK1A protein (FLAGx3-DYRK1A protein) | melting point | Compound | other results |
| --- | --- | --- | --- |
| capable of reducing | 185 to 186 °C | COc1ccc(/C=C2\SC(=S)NC2=O)cc1C#CC1CCCCC1 [Compound 3, (Z)-5-(3-(cyclohexylethynyl)-4-methoxybenzylidene)-2-thioxothiazolidin-4-one] | – |
| capable of reducing | 204 to 205 °C | COc1ccc(/C=C2\SC(=S)NC2=O)cc1-c1cccc(C)c1 [Compound 5] | – |
| – | 198 to 199 °C | COc1ccc2c([nH]c3c(C)nccc32)c1C#CC1CCCCC1 [Compound 10, 8-[2-(cyclohexyl)ethynyl]harmine] | amount of FLAGx3-DYRK1A (FLAG-DYRK1A) protein within the cells (FLAGx3-DYRK1A protein): reduces the FLAGx3-DYRK1A protein |
| – | 238 to 239 °C | COc1ccc(/C=C2\SC(=S)NC2=O)cc1-c1cc(C)cc(C)c1 [Compound 8, (Z)-5-(3,5-dimethylphenyl-4-methoxybenzylidene)-2-thioxothiazolidin-4-one] | – |
| – | 183 to 186 °C | Fc1ccc(N2CCN(c3ccccc3)CC2)c(NC(=S)c2ccncc2)c1 [Compound 2, N-[5-fluoro-2-(4-phenyl-1-piperazinyl)phenyl]isonicotinthioamide] | effect on stability of TAU protein (EGFP-TAU protein): make TAU protein unstable and allow the protein to decompose; effect on transcription and translation of TAU (EGFP-TAU protein): not to affect at all; amount of the EGFP-TAU protein within the cells (EGFP-TAU protein; Western blot, FIG. 6): reduces only the amount of the EGFP-TAU protein; amount of the internal standard mCherry protein (EGFP-TAU protein; Western blot, FIG. 6): does not affect |
| – | 209 to 210 °C | COc1ccc(/C=C2\SC(=S)NC2=O)cc1-c1cccc(C(F)(F)F)c1 [Compound 7, (Z)-5-(3-(trifluoromethyl)phenyl-4-methoxybenzylidene)-2-thioxothiazolidin-4-one] | – |

Further lines, the molecule ahead of its results:

| Compound | amount of intracellular DYRK1A protein (FLAGx3-DYRK1A protein) | melting point | other results |
| --- | --- | --- | --- |
| COc1ccc2c([nH]c3c(C)nccc32)c1C#C[Si](C)(C)C [Compound 9, 8-[2-(trimethylsilyl)ethynyl]harmine] | – | 185 to 186 °C | amount of FLAGx3-DYRK1A (FLAG-DYRK1A) protein within the cells (FLAGx3-DYRK1A protein): reduces only the amount of the FLAG-DYRK1A protein; amount of the internal standard EGFP protein (FLAGx3-DYRK1A protein; FIGS. 10-11): does not affect |
| COc1ccc(/C=C2\SC(=S)NC2=O)cc1-c1cc(C(F)(F)F)cc(C(F)(F)F)c1 [Compound 6, (Z)-5-(3,5-bis(trifluoromethyl)phenyl-4-methoxybenzylidene)-2-thioxothiazolidin-4-one] | – | 244 to 245 °C | – |
| COc1ccc(/C=C2\SC(=S)NC2=O)cc1C#CC1C2CC3CC(C2)CC1C3 (stereo not drawn) [Compound 4, (Z)-5-(3-(2-adamantylethynyl)-4-methoxybenzylidene)-2-thioxothiazolidin-4-one] | capable of reducing | 266 to 267 °C | – |
| COc1ccc2c(c1)[nH]c1c(C)nccc12 [Harmine] | – | – | homocysteine in blood (DYRK1A; after two hours from administration): raised rapidly; homocysteine in blood compared with controls (DYRK1A; for 5 hours): higher numerical values in comparison with controls |
